Results: patent publication US8999998B2, “Pyrazolopyrimidine JAK inhibitor compounds and methods” (Genentech, Inc., priority 2009, dated 2015)

Key:
Type in all cases: biochemical
JAK2 kinase domain = JAK2 kinase domain (Homo sapiens (Human), UniProt O60674); test: JAK2 inhibition assay (Caliper LabChip, isolated kinase domain); details: 25 uM ATP, 0.2 nM JAK2; read-out: JAK2 enzymatic activity (Ki)
Text: (§1) The catalytically active kinase domain of human JAK1, JAK2, JAK3 or TYK2 was purified from extracts of SF9 insect cells infected with a recombinant baculovirus expression vector encoding the human JAK1, JAK2, JAK3 or TYK2 kinase domains (JAK1 amino acid residues N852-D1154 according to the numbering of GenBank sequence accession number P23458, JAK2 amino acid residues D812-G1132 according to the numbering of GenBank sequence accession number NP_004963.1; JAK3 amino acid residues S783-S1124 according to the numbering of GenBank sequence accession number P52333, and TYK2 amino acid residues N873-C1187 according to the numbering of GenBank sequence accession number P29597). The activity of the JAK1, JAK2, JAK3 or TYK2 kinase domains can be measured by a number of direct and indirect methods, including quantification of phosphorylation of peptide substrates derived from the human JAK3 protein (Saltzman et al., Biochem. Biophys. Res. Commun. 246:627-633 (2004)). The activity of the JAK1, JAK2, JAK3 or TYK2 kinase domains was measured in vitro by monitoring phosphorylation of JAK3 derived peptides using the Caliper LabChip technology (see Examples).
(§2) The activity of the isolated JAK1, JAK2 or TYK2 kinase domain was measured by monitoring phosphorylation of a peptide derived from JAK3 ([…] fluorescently labeled on the N-terminus with 5-carboxyfluorescein using the Caliper LabChip technology (Caliper Life Sciences, Hopkinton, Mass.). […] Reactions were incubated at 22° C. in 384-well polypropylene microtiter plates for 30 minutes and then stopped by addition of 25 uL of an EDTA containing solution (100 mM Hepes pH 7.2, 0.015% Brij-35, 150 mM EDTA), resulting in a final EDTA concentration of 50 mM. After termination of the kinase reaction, the proportion of phosphorylated product was determined as a fraction of total peptide substrate using the Caliper LabChip 3000 according to the manufacturer's specifications. Ki values were then determined using the Morrison tight binding model. Morrison, J. F., Biochim. Biophys. Acta. 185:269-296 (1969); William, J. W. and Morrison, J. F., Meth. Enzymol., 63:437-467 (1979).

TYK2 kinase domain = TYK2 kinase domain (Homo sapiens (Human), UniProt P29597); test: TYK2 inhibition assay (Caliper LabChip, isolated kinase domain); details: 25 uM ATP, 1 nM TYK2; read-out: TYK2 enzymatic activity (Ki)
TYK2 kinase domain, sequence (P29597 873-1187): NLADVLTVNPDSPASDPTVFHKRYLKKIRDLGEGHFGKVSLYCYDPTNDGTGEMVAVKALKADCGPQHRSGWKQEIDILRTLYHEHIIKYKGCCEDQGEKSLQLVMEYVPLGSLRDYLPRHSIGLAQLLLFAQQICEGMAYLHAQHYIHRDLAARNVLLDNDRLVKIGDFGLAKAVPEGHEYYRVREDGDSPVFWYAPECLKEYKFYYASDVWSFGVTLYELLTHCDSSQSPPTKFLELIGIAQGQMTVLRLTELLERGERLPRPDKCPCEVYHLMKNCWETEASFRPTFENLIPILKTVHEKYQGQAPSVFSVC
Text: as §1, §2

JAK1 kinase domain = JAK1 kinase domain (Homo sapiens (Human), UniProt P23458); test: JAK1 inhibition assay (Caliper LabChip, isolated kinase domain); details: 25 uM ATP, 1.5 nM JAK1; read-out: JAK1 enzymatic activity (Ki)
JAK1 kinase domain, sequence (P23458 852-1154): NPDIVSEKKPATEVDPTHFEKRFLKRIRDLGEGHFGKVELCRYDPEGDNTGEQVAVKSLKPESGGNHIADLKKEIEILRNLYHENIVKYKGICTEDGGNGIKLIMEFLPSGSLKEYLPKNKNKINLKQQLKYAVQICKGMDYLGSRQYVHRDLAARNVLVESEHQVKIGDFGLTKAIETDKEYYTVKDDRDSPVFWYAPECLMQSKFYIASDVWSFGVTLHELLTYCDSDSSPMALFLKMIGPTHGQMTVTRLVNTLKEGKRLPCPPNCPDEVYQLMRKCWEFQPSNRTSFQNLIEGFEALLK
Text: as §1, §2

JAK3 kinase domain = JAK3 kinase domain (Homo sapiens (Human), UniProt P52333); test: JAK3 inhibition assay (Caliper LabChip, isolated kinase domain); details: 5 uM ATP, 5 nM JAK3; read-out: JAK3 enzymatic activity (Ki)
JAK3 kinase domain, sequence (P52333 783-1124): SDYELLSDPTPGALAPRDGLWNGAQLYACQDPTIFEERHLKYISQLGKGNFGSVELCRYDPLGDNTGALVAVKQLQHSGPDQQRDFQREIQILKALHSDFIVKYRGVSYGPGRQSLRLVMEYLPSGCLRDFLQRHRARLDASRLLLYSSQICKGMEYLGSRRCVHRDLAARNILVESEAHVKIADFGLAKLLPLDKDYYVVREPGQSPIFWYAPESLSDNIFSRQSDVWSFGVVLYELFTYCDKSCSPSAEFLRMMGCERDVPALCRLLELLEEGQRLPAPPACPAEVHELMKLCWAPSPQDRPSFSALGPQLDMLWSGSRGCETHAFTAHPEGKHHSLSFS
Text: as §1, with “Previous studies have shown that the isolated kinase domains of human JAK1, JAK2, JAK3 or TYK2 phosphorylate peptide substrates in in vitro kinase assays (Saltzman et al., Biochem. Biophys. Res. Commun. 246:627-633 (2004)). The catalytically” for “The catalytically”
as §2, with “JAK3” for “JAK1, JAK2 or TYK2”

JAK2 kinase domain, sequence (O60674 812-1132): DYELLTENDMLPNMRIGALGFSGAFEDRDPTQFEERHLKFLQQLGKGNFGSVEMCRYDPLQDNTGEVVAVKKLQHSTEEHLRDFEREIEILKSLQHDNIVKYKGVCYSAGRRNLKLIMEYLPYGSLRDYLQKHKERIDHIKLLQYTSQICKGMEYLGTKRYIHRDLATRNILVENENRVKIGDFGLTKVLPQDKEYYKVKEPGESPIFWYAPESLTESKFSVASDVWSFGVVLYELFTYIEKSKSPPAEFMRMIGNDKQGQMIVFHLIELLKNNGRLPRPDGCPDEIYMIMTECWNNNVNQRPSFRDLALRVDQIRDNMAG

| Structure (SMILES) | Ki (JAK2 kinase domain) [nM] | Ki (TYK2 kinase domain) [nM] | Ki (JAK1 kinase domain) [nM] | Ki (JAK3 kinase domain) [nM] |
| --- | --- | --- | --- | --- |
| CC1CCCCN1c1nn(CC(C)(C)O)cc1NC(=O)c1cnn2cccnc12 (centres unmarked) [Example 379, N-(1-(2-hydroxy-2-methylpropyl)-3-(2-methylpiperidin-1-yl)-1H-pyrazol-4-yl)pyrazolo[1,5-a]pyrimidine-3-carboxamide] | 26.3 | 410 | 85.9 | 240 |
| N#CC1CCN(c2n[nH]cc2NC(=O)c2cnn3cccnc23)CC1 [Example 395, N-(3-(4-cyanopiperidin-1-yl)-1H-pyrazol-4-yl)pyrazolo[1,5-a]pyrimidine-3-carboxamide] | 31.3 | 230 | 176 | 390 |
| O=C(Nc1c[nH]nc1-n1cc(Cl)ccc1=O)c1cnn2cccnc12 [Example 194, N-(3-(5-chloro-2-oxopyridin-1(2H)-yl)-1H-pyrazol-4-yl)pyrazolo[1,5-a]pyrimidine-3-carboxamide] | 110 | 980 | 775 | 4100 |
| COc1ccc(Cl)cc1-c1c(NC(=O)c2cnn3cccnc23)cnn1CCO [Example 109, N-(5-(5-chloro-2-methoxyphenyl)-1-(2-hydroxyethyl)-1H-pyrazol-4-yl)pyrazolo[1,5-a]pyrimidine-3-carboxamide] | 1 | 5.6 | 4.4 | 18 |
| O=C(Nc1ccncc1-c1cccc(F)c1)c1cnn2cccnc12 [Example 63, N-(3-(3-fluorophenyl)pyridin-4-yl)pyrazolo[1,5-a]pyrimidine-3-carboxamide] | 23 | 140 | 153 | 200 |
